Measurements: ChEMBL document CHEMBL3228021, “Studies on analgesic agents. 1.1a Preparation of 1,2-diphenyl-2-(4-substituted 1-piperazinyl)ethanol derivatives and structure-activity relationships” (J Med Chem, 1979)

Assays:
Mus musculus [1] = test: Analgesic activity in sc dosed ddN mouse assessed as inhibition of light radiation-induced thermal pain by D'Amour-Smith method; type: functional
Rattus norvegicus [2] = organism: Rattus norvegicus; test: Toxicity in morphine-dependent rat assessed as induction of physical dependence liability by substitution test; type: organism-based; conditions: in vivo
Mus musculus [3] = organism: Mus musculus; test: Toxicity in mouse assessed as induction of physical dependence liability by jumping test; type: organism-based; conditions: in vivo
[4] = Acute lethal toxicity in sc dosed mouse measured after 1 week; type: organism-based; conditions: in vivo
Mus musculus [5] = test: Analgesic activity in po dosed ddN mouse assessed as inhibition of light radiation-induced thermal pain by D'Amour-Smith method; type: functional
[6] = Acute lethal toxicity in sc dosed rat measured after 1 week; type: organism-based; conditions: in vivo
Rattus norvegicus [7] = test: Analgesic activity in po dosed Wistar rat assessed as inhibition of tail pressing-induced mechanical pain by Haffner method; type: functional
Mus musculus [8] = test: Analgesic activity in po dosed ddN mouse assessed as inhibition of phenylquinone-induced writhing; type: functional
[9] = Acute lethal toxicity in po dosed rat measured after 1 week; type: organism-based; conditions: in vivo
[10] = Acute lethal toxicity in po dosed mouse measured after 1 week; type: organism-based; conditions: in vivo
Mus musculus [11] = test: Toxicity in sc dosed ddN mouse light radiation-induced thermal pain model; type: organism-based; conditions: in vivo
[12] = Toxicity in po dosed Wistar rat tail pressing-induced mechanical pain model; type: organism-based; conditions: in vivo
Rhesus monkey = test: Toxicity in morphine-dependent monkey assessed as induction of physical dependence liability by single dose suppression test; type: organism-based, Macaca mulatta; conditions: in vivo
[13] = Mus musculus, ddN, sc, read-out: ED50

Row | SMILES | ED50 (Mus musculus [1]; [13]) | ED50 (Mus musculus [8]) | other results
1 | COc1ccccc1CN1CCN(C(c2ccccc2)C(O)c2ccccc2)CC1.Cl.O (racemic) | > 160 mg/kg | – | –
2 | COc1ccc(CN2CCN(C(c3ccccc3OC)C(O)c3ccccc3)CC2)cc1.Cl (racemic) | – | – | Activity (Rattus norvegicus [2]): Non-toxic; Activity (Mus musculus [3]): Non-toxic
3 | COc1ccc2c3c1O[C@H]1[C@@H](O)C=C[C@H]4[C@@H](C2)N(C)CC[C@@]341.COc1ccc2c3c1O[C@H]1[C@@H](O)C=C[C@H]4[C@@H](C2)N(C)CC[C@@]341.O.O=P(O)(O)O.O=P(O)(O)O [CODEINE PHOSPHATE] | 28.1 mg/kg | 8.21 mg/kg | LD50 at 168 h [4]: 271 mg/kg; ED50 (Mus musculus [5]): 98.4 mg/kg; LD50 at 168 h [6]: 365 mg/kg; ED50 (Rattus norvegicus [7]): 196 mg/kg; LD50 at 168 h [9]: 1180 mg/kg; LD50 at 168 h [10]: 574 mg/kg
4 | COc1cc(CN2CCN(C(c3ccccc3Cl)C(O)c3ccccc3)CC2)cc(OC)c1OC.Cl.O (racemic) | > 160 mg/kg | – | –
5 | COc1ccc(CN2CCN(C(c3ccccc3)C(O)c3ccccc3Cl)CC2)cc1.Cl (racemic) | > 160 mg/kg | – | –
6 | OC(c1ccccc1)C(c1ccccc1)N1CCN(CCc2ccccc2)CC1 (racemic) | > 160 mg/kg | – | –
7 | COc1ccc(CN2CCN([C@@H](c3ccccc3)[C@@H](O)c3ccccc3)CC2)cc1 | 13.5 mg/kg | – | –
8 | COc1ccc(CN2CCN(C(c3ccc(Cl)cc3)C(O)c3ccccc3)CC2)cc1.Cl (racemic) | 39.7 mg/kg | 16.4 mg/kg | –
9 | CCOc1ccc(CN2CCN(C(c3ccccc3Cl)C(O)c3ccccc3)CC2)cc1.Cl (racemic) | > 160 mg/kg | – | –
10 | COc1ccc(CN2CCN(C(c3ccccc3Cl)C(O)c3ccc(C)cc3)CC2)cc1.Cl (racemic) | > 160 mg/kg | – | –
11 | OC(c1ccccc1)C(c1ccccc1)N1CCN(c2ccccn2)CC1 (racemic) | > 160 mg/kg | – | –
12 | COc1ccc(CN2CCN(C(c3ccc([N+](=O)[O-])cc3)C(O)c3ccccc3)CC2)cc1.Cl (racemic) | – | 10.2 mg/kg | ED50 (Mus musculus [1]): 8.11 mg/kg
13 | OC(c1ccccc1)C(c1ccccc1)N1CCN(c2ccccc2Cl)CC1 (racemic) | > 160 mg/kg | – | –
14 | COc1ccc(CN2CCN(C(c3ccc(Cl)cc3)C(O)c3ccc(C)cc3)CC2)cc1.Cl (racemic) | > 160 mg/kg | – | –
15 | COc1ccc(CN2CCN(C(c3ccccc3)C(O)c3cccc(Cl)c3)CC2)cc1.Cl.O (racemic) | > 160 mg/kg | – | –
16 | COc1ccc(CN2CCN([C@H](c3ccccc3Cl)[C@H](O)c3ccccc3)CC2)cc1.Cl | 58.4 mg/kg | – | –
17 | COc1ccc(CN2CCN(C(c3ccccc3)C(O)c3ccccc3OC)CC2)cc1.Cl (racemic) | > 160 mg/kg | – | –
18 | CCC(=O)OC(c1ccccc1)C(c1ccccc1)N1CCN(Cc2ccc(OC)cc2)CC1.Cl (racemic) | 73.1 mg/kg | 44.3 mg/kg | –
19 | Cc1c(N(C)C)c(=O)n(-c2ccccc2)n1C [AMINOPYRINE] | – | – | LD50 at 168 h [4]: 385 mg/kg; ED50 (Mus musculus [11]): > 640 mg/kg; LD50 at 168 h [6]: 511 mg/kg; LD50 at 168 h [9]: > 2000 mg/kg; LD50 [12]: > 2560 mg/kg; LD50 at 168 h [10]: 523 mg/kg
20 | Cl.OC(c1ccccc1)C(c1ccccc1Cl)N1CCN(Cc2ccc(OCc3ccccc3)cc2)CC1 (racemic) | > 160 mg/kg | – | –
21 | COc1ccc(CN2CCN(C(c3ccc([N+](=O)[O-])cc3)C(O)c3ccccc3)CC2)cc1.Cl (stereo in doubt; 55) | – | – | ED50 (Mus musculus [1]): >160 mg/kg
22 | Cc1ccc(CN2CCN(C(c3ccccc3)C(O)c3ccccc3)CC2)cc1.Cl.O (racemic) | > 160 mg/kg | 43.7 mg/kg | –
23 | COc1ccc(CN2CCN([C@H](c3ccccc3)[C@H](O)c3ccccc3)CC2)cc1 | 40.1 mg/kg | – | –
24 | COc1ccc(CN2CCN(C(c3ccc(OC)cc3)C(O)c3ccccc3)CC2)cc1.Cl (racemic) | 37.4 mg/kg | 24.1 mg/kg | –
25 | COc1ccc(CN2CCN(C(c3ccccc3C)C(O)c3ccccc3)CC2)cc1.Cl (racemic; 41) | – | – | ED50 (Mus musculus [1]): 65.2 mg/kg; Activity (Rattus norvegicus [2]): Non-toxic; Activity (Mus musculus [3]): Non-toxic
26 | Cl.OC(c1ccccc1)C(c1ccccc1Cl)N1CCN(Cc2ccc3c(c2)OCO3)CC1 (racemic) | > 160 mg/kg | – | –

Row | SMILES | ED50 (Mus musculus [1]; [13]) | ED50 (Mus musculus [8]) | other results
27 | COc1cccc(CN2CCN(C(c3ccccc3C)C(O)c3ccccc3)CC2)c1.Cl.O (racemic) | > 160 mg/kg | – | –
28 | COc1ccc(CN2CCN(C(c3ccc(C)cc3)C(O)c3ccccc3)CC2)cc1.Cl (racemic) | 14.1 mg/kg | 16.8 mg/kg | –
29 | COc1ccc(CN2CCN(C(c3cccc(OC)c3)C(O)c3ccccc3)CC2)cc1.Cl (racemic) | > 160 mg/kg | – | –
30 | COc1ccc(CN2CCN([C@@H](c3ccccc3Cl)[C@@H](O)c3ccccc3)CC2)cc1.Cl | > 160 mg/kg | – | –
31 | COc1ccc(CN2CCN(C(c3ccccc3Cl)C(O)c3ccccc3)CC2)cc1OC.Cl (racemic) | > 160 mg/kg | – | –
32 | Cl.OC(c1ccccc1)C(c1ccccc1)N1CCN(Cc2ccccc2)CC1 (racemic) | > 160 mg/kg | 20.6 mg/kg | –
33 | COc1ccc(CN2CCN(C(c3ccccc3)C(O)c3ccc(C)cc3)CC2)cc1.Cl (racemic) | 31.7 mg/kg | 85.9 mg/kg | –
34 | COc1ccc(CN2CCN(C(c3ccccc3)C(OC(C)=O)c3ccccc3)CC2)cc1.Cl (racemic) | 80 mg/kg | 46.3 mg/kg | –
35 | COc1ccc(CN2CCN(C(c3ccccc3)C(O)c3ccccc3)CC2)cc1 (racemic) | > 160 mg/kg | 31.1 mg/kg | ED50 (Mus musculus [11]): 15.2 mg/kg
36 | COc1ccc(CN2CCN(C(c3ccccc3OC)C(O)c3ccc(C)cc3)CC2)cc1.Cl (racemic) | > 160 mg/kg | – | –
37 | COc1ccc(CN2CCN(C(c3ccccc3)C(O)c3ccc(O)cc3)CC2)cc1.Cl (racemic) | > 160 mg/kg | – | –
38 | COc1ccc(CN2CCN(C(c3ccccc3)C(O)c3ccccc3C)CC2)cc1.Cl (racemic) | 120 mg/kg | 100 mg/kg | –
39 | COc1ccc(CN2CCN(C(c3ccccc3)C(O)c3cccc(C)c3)CC2)cc1.Cl (racemic) | 26.4 mg/kg | 18.5 mg/kg | –
40 | COc1ccc(CN2CCN(C(c3ccccc3C)C(O)c3ccccc3)CC2)cc1.Cl (racemic; 54) | – | – | ED50 (Mus musculus [1]): >160 mg/kg
41 | Cl.O=[N+]([O-])c1ccc(CN2CCN(C(c3ccccc3)C(O)c3ccccc3)CC2)cc1 (racemic) | > 160 mg/kg | 40 mg/kg | –
42 | COc1ccccc1CN1CCN(C(c2ccccc2Cl)C(O)c2ccccc2)CC1.Cl.O (racemic) | > 160 mg/kg | – | –
43 | COc1ccc(CN2CCN(C(c3ccccc3)C(O)c3ccc(OC)cc3)CC2)cc1.Cl.O (racemic) | > 160 mg/kg | – | –
44 | COc1ccc(CN2CCN(C(c3ccccc3Cl)C(O)c3ccccc3)CC2)cc1.Cl (racemic; 53) | – | – | ED50 (Mus musculus [1]): >160 mg/kg
45 | COc1ccc(CN2CCN(C(c3ccccc3)C(O)c3ccc(Cl)cc3)CC2)cc1.Cl (racemic) | > 160 mg/kg | – | –
46 | Cl.OC(c1ccccc1)C(c1ccccc1)N1CCN(C2CCCCC2)CC1 (racemic) | – | – | ED50 (Mus musculus [11]): > 80 mg/kg
47 | CCC(=O)OC(c1ccccc1)C(c1ccccc1Cl)N1CCN(Cc2ccc(OC)cc2)CC1.Cl (racemic) | > 160 mg/kg | 90 mg/kg | –
48 | COc1ccc(CN2CCN(C(c3ccccc3Cl)C(O)c3ccccc3)CC2)cc1.Cl (racemic; 38) | – | 20.9 mg/kg | ED50 (Mus musculus [1]): 79 mg/kg; LD50 at 168 h [4]: 431 mg/kg; ED50 (Mus musculus [5]): 165 mg/kg; Activity (Rattus norvegicus [2]): Non-toxic; LD50 at 168 h [6]: 584 mg/kg; ED50 (Rattus norvegicus [7]): 228 mg/kg; Activity (Rhesus monkey): Non-toxic; Activity (Mus musculus [3]): Non-toxic; LD50 at 168 h [9]: > 3200 mg/kg; LD50 at 168 h [10]: 509 mg/kg
49 | COc1ccc(CN2CCN(C(c3cccc(Cl)c3)C(O)c3ccccc3)CC2)cc1.Cl (racemic) | 48.1 mg/kg | 27.2 mg/kg | –
50 | COc1cccc(CN2CCN(C(c3ccccc3Cl)C(O)c3ccccc3)CC2)c1.Cl (racemic) | > 160 mg/kg | – | –
51 | COc1ccc(CN2CCN(C(c3cccc(C)c3)C(O)c3ccccc3)CC2)cc1.Cl (racemic) | 28 mg/kg | 27.7 mg/kg | –
52 | COc1ccccc1N1CCN(C(c2ccccc2)C(O)c2ccccc2)CC1 (racemic) | > 160 mg/kg | – | –
